# Assay results as given in ChEMBL document CHEMBL5104178, “Nitroimidazopyrazinones with Oral Activity against Tuberculosis and Chagas Disease in Mouse Models of Infection” (J Med Chem, 2022).
# What was measured:
# [1] = AUC(0 to 24 hrs) in CD-1 mouse at 20 mg/kg, po administered as DMSO/PEG400 formulation measured upto 24 hrs by LC-MS/MS analysis; format: ADME, organism-based; parameters: dose 20 mg/kg, time < 24 hrs, route po; settings: in vivo
# [2] = Half life in CD-1 mouse at 5 mg/kg, iv administered as DMSO/PEG400 formulation measured upto 24 hrs by LC-MS/MS analysis; format: ADME, organism-based; settings: in vivo
# [3] = Cmax in CD-1 mouse at 20 mg/kg, po administered as DMSO/PEG400 formulation measured upto 24 hrs by LC-MS/MS analysis; format: ADME, organism-based; parameters: dose 20 mg/kg, time < 24 hrs, route po; settings: in vivo
# [4] = Half life in CD-1 mouse at 20 mg/kg, po administered as DMSO/PEG400 formulation measured upto 24 hrs by LC-MS/MS analysis; format: ADME, organism-based; settings: in vivo
# [5] = Oral bioavailability in CD-1 mouse at 20 mg/kg administered as DMSO/PEG400 formulation measured upto 24 hrs by LC-MS/MS analysis; format: ADME, organism-based; settings: in vivo
# [6] = Clearance in CD-1 mouse at 5 mg/kg, iv administered as DMSO/PEG400 formulation measured upto 24 hrs by LC-MS/MS analysis; format: ADME, organism-based; settings: in vivo
# [7] = Volume of distribution at steady state in CD-1 mouse at 5 mg/kg, iv administered as DMSO/PEG400 formulation measured upto 24 hrs by LC-MS/MS analysis; format: ADME, organism-based; settings: in vivo, read-out: Vdss
# Trypanosoma cruzi [8] = assay: Antitrypanosomal activity against bioluminescent Trypanosoma cruzi CL Brener trypomastigotes infected in BALB/c mouse assessed as reduction in parasite burden at 50 mg/kg, po administered twice daily for 5 days starting from 14 days post infection and measured on 36 days post infection; format: functional; parameters: scale not given: the % may be the effect or the level left; settings: time 22 day
# [9] = Tmax in CD-1 mouse at 20 mg/kg, po administered as DMSO/PEG400 formulation measured upto 24 hrs by LC-MS/MS analysis; format: ADME, organism-based; settings: in vivo
# Trypanosoma cruzi [10] = assay: Antitrypanosomal activity against Trypanosoma cruzi Tulahuen amastigotes infected in mouse 3T3 cells assessed as reduction in parasite growth at Emax concentration incubated for 48 hrs by […] staining based analysis; format: functional; parameters: scale not given: the % may be the effect or the level left
# Trypanosoma cruzi [11] = assay: Antitrypanosomal activity against bioluminescent Trypanosoma cruzi CL Brener trypomastigotes infected in BALB/c mouse assessed as reduction in parasite burden at 100 mg/kg, po administered once daily for 5 days starting from 14 days post infection and measured on 36 days post infection; format: functional; parameters: scale not given: the % may be the effect or the level left; settings: time 22 day
# [12] = Cytotoxicity against mouse 3T3 cells; format: toxicity, cell-based; settings: NIH3T3 cells
# Trypanosoma cruzi [13] = assay: Antitrypanosomal activity against Trypanosoma cruzi Tulahuen amastigotes infected in mouse 3T3 cells assessed as inhibition of parasite growth incubated for 48 hrs by […] staining based analysis; format: functional, organism-based; settings: for IC90: NIH3T3, time 48 hrs
# [14] = Selectivity index, ratio of CC50 for cytotoxicity against mouse 3T3 cells to IC50 for antitrypanosomal activity against Trypanosoma cruzi Tulahuen amastigotes infected in mouse 3T3 cells; format: toxicity, cell-based; settings: read-out: Ratio CC50/IC50
# [15] = test system: Mycobacterium tuberculosis; assay: Antimycobacterial activity against Mycobacterium tuberculosis H37Rv ATCC 27294 assessed as bacterial growth inhibition incubated for 5 days under hypoxic condition by resazurin microtiter assay; format: functional; settings: H37Rv ATCC 27294, 120 h, time 5 day
# [16] = test system: Mycolicibacterium smegmatis; assay: Antimycobacterial activity against Mycobacterium smegmatis mc2155 ATCC 700084 assessed as bacterial growth inhibition incubated for 24 hrs under normoxic condition by resazurin microtiter assay; format: functional
# [17] = test system: Mycobacterium tuberculosis; assay: Antimycobacterial activity against Mycobacterium tuberculosis H37Ra ATCC 25177 assessed as bacterial growth inhibition incubated for 6 days under normoxic condition by resazurin microtiter assay; format: functional; settings: H37Ra ATCC 25177, 144 h, time 6 day
# [18] = test system: Mycobacterium tuberculosis; assay: Antimycobacterial activity against Mycobacterium tuberculosis H37Rv ATCC 27294 assessed as bacterial growth inhibition incubated for 5 days under normoxic condition by resazurin microtiter assay; format: functional; settings: H37Rv ATCC 27294, 120 h, time 5 day
# Mycobacterium avium = assay: Antimycobacterial activity against Mycobacterium avium ATCC 25291 assessed as bacterial growth inhibition incubated for 6 days under normoxic condition by resazurin microtiter assay; format: functional; settings: ATCC 25291, 144 h, time 6 day
# [19] = test system: Mycobacterium tuberculosis; assay: Antimycobacterial activity against Mycobacterium tuberculosis infected in BALB/c mouse assessed as log reduction in bacterial load in lung by measuring colony forming unit at 15 mg/kg, po administered 5 days per week for 3 weeks starting from day 10 post infection (reference value: 8.8 x 10^3 CFU); format: functional
# [20] = test system: Mycobacterium tuberculosis; assay: (§1) Antimycobacterial activity against Mycobacterium tuberculosis infected in BALB/c mouse assessed as log reduction in bacterial load in lung by measuring colony forming unit at 50 mg/kg, po administered 5 days per week for 3 weeks starting from day 10 post infection (reference value: 8.8 x 10^3 CFU); format: functional
# [21] = Plasma protein binding in mouse; format: ADME, cell-free; settings: read-out: PPB (converted)
# [22] = test system: Mycobacterium tuberculosis; assay: Substrate activity at Mycobacterium tuberculosis Ddn expressed in Escherichia coli BL21 (DE3) assessed as oxidation of F420H2 by measuring Km by spectrophotometric analysis
# [23] = Plasma protein binding in human; format: ADME, cell-free; settings: read-out: PPB (converted)
# [24] = test system: Mycobacterium tuberculosis; assay: Antimycobacterial activity against Mycobacterium tuberculosis infected in BALB/c mouse assessed as log reduction in bacterial load in lung by measuring colony forming unit at 12.5 mg/kg, po administered 5 days per week for 3 weeks starting from day 10 post infection (reference value: 8.8 x 10^3 CFU); format: functional
# [25] = test system: Mycobacterium tuberculosis; assay: Substrate activity at Mycobacterium tuberculosis Ddn expressed in Escherichia coli BL21 (DE3) assessed as oxidation of F420H2 by measuring Kcat/Km by spectrophotometric analysis
# [26] = AUC(0 to 8 hrs) in CD-1 mouse at 20 mg/kg, po administered as DMSO/PEG400 formulation measured upto 24 hrs by LC-MS/MS analysis; format: ADME, organism-based; parameters: dose 20 mg/kg, time < 24 hrs, route po; settings: in vivo
# [27] = test system: Mycobacterium tuberculosis; assay: Antimycobacterial activity against Mycobacterium tuberculosis infected in BALB/c mouse assessed as log reduction in bacterial load in lung by measuring colony forming unit at 25 mg/kg, po administered 5 days per week for 3 weeks starting from day 10 post infection (reference value: 8.8 x 10^3 CFU); format: functional
# [28] = test system: Mycobacterium tuberculosis; assay: Substrate activity at Mycobacterium tuberculosis Ddn expressed in Escherichia coli BL21 (DE3) assessed as oxidation of F420H2 by measuring Kcat by spectrophotometric analysis
# [29] = Toxicity in BALB/c mouse infected with Mycobacterium tuberculosis assessed as mortality at 12.5 to 50 mg/kg, po administered 5 days per week for 3 weeks starting from day 10 post infection; format: organism-based; settings: in vivo, 504 h, dose 12.5-50 mg/kg
# [30] = Solubility of compound in water by LC-UV analysis; format: physicochemical; settings: water; read-out: solubility
# [31] = Toxicity in BALB/c mouse infected with Mycobacterium tuberculosis assessed as body weight loss at 12.5 to 50 mg/kg, po administered 5 days per week for 3 weeks starting from day 10 post infection; format: organism-based; settings: in vivo, 120 h, dose 12.5-50 mg/kg, time 5 day
# [32] = Metabolic stability in mouse microsomes assessed as compound remaining measured after 2 hrs; format: ADME, Microsome; settings: read-out: Stability
# [33] = Stability in mouse plasma assessed as compound remaining measured after 2 hrs; format: ADME, cell-free; settings: read-out: Stability
# [34] = Solubility of compound in water at 0.1 M HCl at pH 1 by LC-UV analysis; format: physicochemical; settings: 0.1 M HCl in water
# [35] = Stability in human plasma assessed as compound remaining measured after 2 hrs; format: ADME, cell-free; settings: read-out: Stability
# [36] = Solubility of compound in water at pH 7 by LC-UV analysis; format: physicochemical
# [37] = test system: Mycobacterium tuberculosis; assay: as §1, with “at 12.5 to” for “at”; format: functional; settings: dose 12.5-50 mg/kg
# [38] = Metabolic stability in human microsomes assessed as compound remaining measured after 2 hrs; format: ADME, Microsome; settings: read-out: Stability
structure (smiles),measurement,setting,value
O=c1c2nc([N+](=O)[O-])cn2ccn1Cc1ccc(-c2cccnc2)cc1,AUC(0-t) at 24 h,[1],9260 ng·h/mL
same,half-life,[2],1.5 h
same,Cmax,[3],4500 ng/mL
same,half-life,[4],0.77 h
same,bioavailability,[5],92%
same,clearance,[6],22.9 mL/min/kg
same,Vd,[7],2.6 L/kg
same,Activity,Trypanosoma cruzi [8],99.4%
same,Tmax,[9],0.67 h
O=C(Cn1ccnc1[N+](=O)[O-])NCc1ccccc1 [BENZNIDAZOLE],Activity,Trypanosoma cruzi [10],100%
same,Activity,Trypanosoma cruzi [11],99.3%
same,CC50,[12],> 127 µM
same,IC50,"Trypanosoma cruzi [13]; NIH3T3, 48 h",7.6 µM
same,IC90,Trypanosoma cruzi [13],28 µM
same,selectivity ratio,[14],> 17
CO[C@H]1/C=C/O[C@@]2(C)Oc3c(C)c(O)c4c(O)c(c(/C=N/N5CCN(C)CC5)c(O)c4c3C2=O)NC(=O)/C(C)=C\C=C\[C@H](C)[C@H](O)[C@@H](C)[C@@H](O)[C@@H](C)[C@H](OC(C)=O)[C@@H]1C [RIFAMPIN],MIC,[15],0.08 µg/mL
same,MIC,[16],4 µg/mL
same,MIC,[17],< 0.016 µg/mL
same,MIC,[18],0.005 µg/mL
same,MIC,Mycobacterium avium,4 µg/mL
same,log(activity),[19],2.7
O=c1c2nc([N+](=O)[O-])cn2ccn1Cc1cccc(C(F)(F)F)c1,MIC,[15],0.25 µg/mL
same,log(activity),[20],1.7
same,half-life,[2],1.9 h
same,fraction unbound,[21],0.08
same,Km,[22],9.4 µM
same,Cmax,[3],3400 ng/mL
same,fraction unbound,[23],0.04
same,log(activity),[24],0.75
same,bioavailability,[5],64%
same,MIC,[16],> 32 µg/mL
same,clearance,[6],7.66 mL/min/kg
same,kcat/Km,[25],1650 M⁻¹ s⁻¹
same,MIC,[17],≤ 0.016 µg/mL
same,AUC(0-t) at 24 h,[26],20800 ng·h/mL
same,Vd,[7],1.2 L/kg
same,MIC,[18],0.063 µg/mL
same,log(activity),[27],1.1
same,kcat,[28],1.6 10^-2/s
same,Activity,[29],Non-Toxic
same,solubility,[30],2.9 µM
same,MIC,Mycobacterium avium,> 32 µg/mL
same,Activity,[31],Non-Toxic
same,Tmax,[9],2.7 h
O=c1c2nc([N+](=O)[O-])cn2ccn1Cc1ccc(OC(F)(F)F)cc1,Activity,Trypanosoma cruzi [10],100%
same,AUC(0-t) at 24 h,[1],38900 ng·h/mL
same,half-life,[2],3.8 h
same,fraction unbound,[21],< 0.01
same,Cmax,[3],3300 ng/mL
same,CC50,[12],> 73 µM
same,fraction unbound,[23],< 0.01
same,remaining at 2 h,[32],> 99%
same,half-life,[4],4.8 h
same,bioavailability,[5],98%
same,remaining at 2 h,[33],> 99%
same,MIC,[16],> 32 µg/mL
same,clearance,[6],6.36 mL/min/kg
same,MIC,[17],0.031 µg/mL
same,solubility,[34],< 1 µM
same,remaining at 2 h,[35],98%
same,Vd,[7],2.2 L/kg
same,IC90,Trypanosoma cruzi [13],0.72 µM
same,solubility,[36],< 1 µM
same,log(activity),[37],0.21
same,remaining at 2 h,[38],> 99%
same,Activity,[29],Non-Toxic
same,solubility,[30],< 1 µM
same,MIC,Mycobacterium avium,> 32 µg/mL
same,Activity,[31],Non-Toxic
same,Tmax,[9],5.3 h
